Reference: patent US8318914B2, “Elongases and methods for producing polyunsaturated fatty acids in transgenic organisms” (priority 2007, dated 2012)
Read-outs that look alike come from different tables or passages of the source.

Tests used:
[1] = system: yeast strain INVSC-1 with empty vector pYES2.1/V5-His-TOPO; assay: Vector control of Example 5: yeast with empty vector pYES2.1/V5-His-TOPO fed fatty acids; format: cell-based; settings: 250 μM fatty acid fed to yeast INVSC-1, 12 h induction medium
Procedure: Plasmid pYES-D9Elo(Ro) was transformed into the yeast strain INVSC-1 (Invitrogen) following the manufacturer's instructions and selected on plates with DOB-U agar on the basis of uracil auxotrophy. Positive colonies were identified by PCR. To this end, in each case 1 μl of defrosted cells, 200 μM dNTPs, 2.5 U Taq polymerase and 100 pmol of each primer were used to carry out in a total volume of 50 μl. The PCR conditions were as follows: first denaturation at 95° C. for 5 minutes, followed by 30 cycles of 30 seconds at 94° C., 1 minute at 55° C. and 2 minutes at 72° C., and a last elongation step for 10 minutes at 72° C. In parallel, the empty vector pYES2.1/V5-His-TOPO was transformed in the abovedescribed manner into competent yeast cells of the strain INVSC-1. Yeast cells with the plasmid pYES-D9Elo(Ro) and pYES2.1/V5-His-TOPO were incubated for 12 h in liquid DOB-U medium at 28° C., 200 rpm, and then for a further 12 h in induction medium (DOB-U+2% (w/v) galactose+2% (w/v) raffinose) and 250 μM of fatty acids added to the medium. The specificity and activity of the gene to be characterized can be determined with reference to the added fatty acids.
(§1) The yeast cells from the main cultures were harvested by centrifugation (100×g, 5 min, 20° C.) and washed with 100 mM NaHCO3, pH 8.0 to remove residual medium and fatty acids. Starting with the yeast cell sediments, fatty acid methyl esters (FAMEs) were prepared by acid methanolysis. To this end, the cell sediments were incubated for one hour at 80° C. together with 2 ml of 1 N methanolic sulfuric acid and 2% (v/v) of dimethoxypropane. The FAMEs were extracted twice with petroleum ether (PE). To remove nonderivatized fatty acids, the organic phases were washed in each case once with 2 ml of 100 mM NaHCO3, pH 8.0 and 2 ml of distilled water. Thereafter, the PE phases were dried with Na2SO4, evaporated under argon and taken up in 100 μl of PE. The samples were separated on a DB-23 capillary column (30 m, 0.25 mm, 0.25 μm, Agilent) in a Hewlett-Packard 6850 gas chromatograph equipped with flame ionization detector. The conditions for the GLC analysis are as follows: the oven temperature was programmed from 50° C. to 250° C. with an increment of 5° C./min and finally 10 min at 250° C. (holding).
The signals are identified by comparing the retention times with corresponding fatty acid standards (Sigma). The methodology is described for example in Napier and Michaelson, 2001, Lipids. 36(8):761-766; Sayanova et al., 2001, Journal of Experimental Botany. 52(360):1581-1585, Sperling et al., 2001, Arch. Biochem. Biophys. 388(2):293-298 and Michaelson et al., 1998, FEBS Letters. 439(3):215-218.

[2] = system: D9Elo(Ro); format: cell-based, Rhizopus oryzae; settings: 250 μM fatty acid fed to transformed yeast INVSC-1, 12 h induction medium
Procedure: Positive colonies were identified by PCR. […] In parallel, the empty vector pYES2.1/V5-His-TOPO was transformed in the abovedescribed manner into competent yeast cells of the strain INVSC-1. […] The specificity and activity of the gene to be characterized can be determined with reference to the added fatty acids.
as §1, with “The samples were separated on a DB-23 capillary column (30 m, 0.25 mm, 0.25 μm, Agilent) in a Hewlett-Packard 6850 gas chromatograph equipped with flame ionization detector.” left out
(§2) The signals are identified by comparing the retention times with corresponding fatty acid standards (Sigma). […] Biochem. Biophys.

[3] = system: yeast strain INVSC-1 with empty vector pYES2.1/V5-His-TOPO; assay: Vector control of Example 4: yeast with empty vector pYES2.1/V5-His-TOPO fed fatty acids; format: cell-based; settings: blank vector control; 250 μM fatty acid fed to yeast INVSC-1, 12 h induction medium
Procedure: (§3) Plasmid pYES-d6Elo(Pir) was then transformed into the yeast strain INVSC-1 (Invitrogen) following the manufacturer's instructions and selected on plates with DOB-U agar on the basis of uracil auxotrophy. Positive colonies were identified by PCR. To this end, in each case 1 μl of defrosted cells, 200 μM dNTPs, 2.5 U Taq-polymerase and 100 pmol of each primer were used to carry out in a total volume of 50 μl. The PCR conditions were as follows: first denaturation at 95° C. for 5 minuten, followed by 30 cycles of 30 seconds at 94° C., 1 minute at 55° C. and 2 minutes at 72° C., and a last elongation step for 10 minutes at 72° C. In parallel, the empty vector pYES2.1/V5-His-TOPO was transformed in the abovedescribed manner into competent yeast cells of the strain INVSC-1. Yeast cells with the plasmid pYES-d6Elo(Pir) and pYES2.1/V5-His-TOPO, respectively, were incubated for 12 h in liquid DOB-U medium at 28° C., 200 rpm, and then for a further 12 h in induction medium (DOB-U+2% (w/v) galactose+2% (w/v) raffinose) and 250 μM of fatty acids added to the medium. The specificity and activity of the gene to be characterized can be determined with reference to the added fatty acids.
as §1, with “The samples were separated on a DB-23 capillary column (30 m, 0.25 mm, 0.25 μm, Agilent) in a Hewlett-Packard 6850 gas chromatograph equipped with flame ionization detector.” left out
as §2
(§4) Table 3 describes the reaction of fatty acids by the plasmids which had been introduced into the yeasts. The conversion rates for the various exogenously added fatty acids are indicated in percent elongation efficiency. The blank vector pYES2.1/V5-His-TOPO acts as control for the activity of the gene sequence D6Elo(Pir). Fatty acids which have been formed in the yeasts with the vector pYES-D6Elo(Pir), but not in yeasts with the vector pYES2.1/V5-His-TOPO, can be attributed to the activity of the D6Elo(Pir) translation product.

[4] = system: D6Elo(Pir); assay: Yeast feeding assay: elongation of fed fatty acids by yeast expressing pYES-D6Elo(Pir), GC analysis of FAMEs; format: cell-based, Pythium irregulare; settings: for Elongation efficiency in percent, pYES-D6Elo(Pir): 250 μM fatty acid fed to transformed yeast INVSC-1, 12 h induction medium, (area product/area substrate + product)*100
Procedure: as §3
as §1, with “The samples were separated on a DB-23 capillary column (30 m, 0.25 mm, 0.25 μm, Agilent) in a Hewlett-Packard 6850 gas chromatograph equipped with flame ionization detector.” left out
as §2, §4

[5] = system: yeast strain INVSC-1 with empty vector pYES2.1/V5-His-TOPO; assay: Vector control of Example 6: yeast with empty vector pYES2.1/V5-His-TOPO fed fatty acids; format: cell-based; settings: 250 μM fatty acid fed to yeast INVSC-1, 12 h induction medium
Procedure: Plasmid pYES-D5Elo(Eg) was then transformed into the yeast strain INVSC-1 (Invitrogen) following the manufacturer's instructions and selected on plates with DOB-U agar on the basis of uracil auxotrophism. Positive colonies were identified by PCR. To this end, in each case 1 μl of defrosted cells, 200 μM dNTPs, 2.5 U Taq polymerase and 100 pmol of each primer were used to carry out in a total volume of 50 μl. The PCR conditions are as follows: first denaturation at 95° C. for 5 minutes, followed by 30 cycles of 30 seconds at 94° C., 1 minute at 55° C. and 2 minutes at 72° C., and a last elongation step for 10 minutes at 72° C. In parallel, the empty vector pYES2.1/V5-His-TOPO was transformed in the abovedescribed manner into competent yeast cells of the strain INVSC-1. Yeast cells with the plasmid pYES-D5Elo(Eg) and pYES2.1/V5-His-TOPO were incubated for 12 h in liquid DOB-U medium at 28° C., 200 rpm, and then for a further 12 h in induction medium (DOB-U+2% (w/v) galactose+2% (w/v) raffinose) and 250 μM of fatty acids added to the medium. The specificity and activity of the gene to be characterized can be determined with reference to the added fatty acids.
The yeast cells from the main cultures were harvested by centrifugation (100×g, 5 min, 20° C.) and washed with 100 mM NaHCO3, pH 8.0 to remove residual medium and fatty acids. […]

[6] = system: D5Elo(Eg); format: cell-based, Euglena gracilis
Procedure: Plasmid pYES-D5Elo(Eg) was then transformed into the yeast strain INVSC-1 (Invitrogen) following the manufacturer's instructions and selected on plates with DOB-U agar on the basis of uracil auxotrophism. […] In parallel, the empty vector pYES2.1/V5-His-TOPO was transformed in the abovedescribed manner into competent yeast cells of the strain INVSC-1. Yeast cells with the plasmid pYES-D5Elo(Eg) and pYES2.1/V5-His-TOPO were incubated for 12 h in liquid DOB-U medium at 28° C., 200 rpm, and then for a further 12 h in induction medium (DOB-U+2% (w/v) galactose+2% (w/v) raffinose) and 250 μM of fatty acids added to the medium. The specificity and activity of the gene to be characterized can be determined with reference to the added fatty acids. […]
The substrate specificity of D5Elo(Eg) [SEQ ID NO: 8] was determined after expression and feeding of various fatty acids (FIG. 2). […] In FIG. 2A, yeasts were analyzed which had not been fed exogenously added fatty acids. […] In FIG. 2C, the yeast cells were analyzed after transformation with plasmid pYES-D5Elo(Eg) and feeding the fatty acid 20:4Δ5,8,11,14. […] In FIG. 2D, the yeast cells were analyzed after transformation with plasmid pYES-D5Elo(Eg) and feeding the fatty acid 20:5Δ5,8,11,14,17.

Compound	Elongation efficiency as a percentage, pYes2.1/V5-His-TOPO [1] [%]	Elongation efficiency as a percentage, D9Elo(Ro) [2] [%]	Elongation efficiency in percent, pYES2.1/V5-His-TOPO [3] [%]	Elongation efficiency in percent, pYES-D6Elo(Pir) [4] [%]	Elongation efficiency as a percentage, pYes2.1/V5-His-TOPO [5] [%]	Elongation efficiency as a percentage, D5Elo(EG) [6] [%]	Substrate preference of D6Elo(Pir), in words ([4]; yeast feeding, summary of Table 3)	Elongation efficiency as a percentage, D5Elo(EG) ([6]; 250 μM fatty acid fed to transformed yeast INVSC-1, 12 h induction medium) [%]
CCCCCC/C=C\CCCCCCCC(=O)O [16:1A9]	2.4	36.6	–	–	–	–	–	–
CCCCCCCC/C=C\CCCCCCCC(=O)O [18:1Δ9, oleic acid]	0.0	8.3	–	–	–	–	–	–
CCCCCC/C=C\CCCCCCCCCC(=O)O [18:1Δ11, cis-vaccenic acid]	–	–	0.0	28.6	–	–	–	–
CCCCC/C=C\C/C=C\CCCCCCCC(=O)O [18:2Δ9, 12, linoleic acid]	0.0	19.3	1.1	11.1	–	–	–	–
CCCCC/C=C\C/C=C\C/C=C\CCCCC(=O)O [18:3Δ6, 9, 12, γ-linolenic acid]	–	–	1.3	27.1	0.9	2.9	–	–
CC/C=C\C/C=C\C/C=C\CCCCCCCC(=O)O [18:3Δ9, 12, 15, linolenic acid]	0.0	49.3	1.4	19.1	–	–	–	–
CC/C=C\C/C=C\C/C=C\C/C=C\CCCCC(=O)O [18:4Δ6, 9, 12, 15, stearidonic acid]	–	–	1.2	38.7	–	–	–	–
CCCCC/C=C\C/C=C\C/C=C\C/C=C\CCCC(=O)O [20:4Δ5, 8, 11, 14, arachidonic acid]	–	–	0.0	6.7	0.0	–	Less activity	46.1
